Measurements as given in patent US20100331384A1, “GUANIDINE BASED COMPOUNDS” (UNIVERSIDAD DEL PAIS VASCO/EUSKAL HERRIKO UNIBERTSITATEA, priority 2007, published 2010).

Key:
α2-ARs [1] = biological target: T1, α2-ARs (Homo sapiens, UniProt P08913); test: [35S]GTPγS binding functional assay, compounds alone; type: biochemical; settings: for agonistic or antagonistic properties in [35S]GTPγS experiments: human brain PFC; for stimulation of [35S]GTPγS binding by the compound on its own: human brain PFC membranes
T1 construct: other: human brain tissue in vitro; other: stimulation of [35S]GTPγS b
Procedure: The [^35S]GTPγs binding assay constitutes a functional measure of the interaction of the receptor and the G-protein and is a useful tool to distinguish between agonists (increasing the nucleotide binding), inverse agonists (decreasing the nucleotide binding), and neutral antagonists (not affecting the nucleotide binding) of GPCRs.^20 Experiments were performed in low-affinity receptor conditions for agonists (presence of guanine nucleotides and sodium in the medium), and therefore, typical potency values are two-three logarithmic units lower than affinity values obtained in radioligand receptor binding experiments.^20
(§1) Preparation of membranes. Neural membranes (P2 fractions) were prepared from the PFC of human brains obtained at autopsy in the Instituto Vasco de Medicina Legal, Bilbao, Spain. Postmortem human brain samples of each subject (˜1 g) were homogenized using a Teflon-glass grinder (10 up-and-down strokes at 1500 rpm) in 30 volumes of homogenization buffer (1 mM MgCl2, and 5 mM Tris-HCl, pH 7.4) supplemented with 0.25 M sucrose. The crude homogenate was centrifuged for 5 min at 1000×g ([…]) and the supernatant was centrifuged again for 10 min at 40000×g (4° C.). The resultant pellet was washed twice in 20 volumes of homogenization buffer and recentrifuged in similar conditions. Aliquots of 1 mg protein were stored at −70° C. until assay.
[^35S]GTPγs binding assays. The incubation buffer for measuring [^35S]GTPγs binding to brain membranes contained, in a total volume of 500 μL, 1 mM EGTA, 3 mM MgCl2, 100 mM NaCl, […], 50 mM Tris-HCl at pH 7.4 and 0.5 nM [^35S]GTPγs. Proteins aliquots were thawed and re-suspended in the same buffer. The incubation was started by addition of the membrane suspension (40 μg of membrane proteins) to the previous mixture and was performed at 30° C. for 120 min with shaking. In order to evaluate the influence of the compounds on [^35S]GTPγs binding, 8 concentrations (10^−10 to 10^−3M) of the different compounds were added to the assay. Incubations were terminated by adding 3 mL of ice-cold re-suspension buffer followed by rapid filtration through Whatman GF/C filters pre-soaked in the same buffer. The filters were rinsed twice with 3 mL of ice-cold re-suspension buffer, transferred to vials containing 5 mL of OptiPhase HiSafe II cocktail (Wallac, UK) and the radioactivity trapped was determined by liquid scintillation spectrometry (Packard 2200CA). […] Non-specific binding of the radioligand was defined as the remaining [^35S]GTPγs binding in the presence of 10 μM unlabelled GTPγs.

α2-ARs [2] = biological target: T1, α2-ARs; test: [3H]RX821002 competition binding assay in human brain PFC membranes; settings: human brain tissue in vitro
[3] = system: cloned human α2-AR receptor; settings: disclosed in WO9846572; cited from earlier work
[4] = system: extracellular NA levels in the PFC; test: In vivo microdialysis in the PFC, extracellular NA; parameters: species or system male Sprague Dawley rats; settings: for Emax of increase in extracellular NA levels: local administration by reverse dialysis 1-100 μM in PFC, percentage of basal values
Excerpt: Intracerebral microdialysis is a neurochemical technique that has been applied extensively in pharmacological studies aimed at investigating the effect of different drugs on brain neurotransmission. This technique allows one to collect a representative concentration of different neurotransmitters of the area where the probe is implanted while the animals are awake and freely moving.^21
Most antidepressant drugs are able to increase NA extracellular concentrations in different brain areas as the PFC, an area implicated in depression disease. Considering that α2-ARs exert a tonic inhibitory action on NA release from the noradrenergic terminals we assessed the ability of these two new compounds to increase NA extracellular concentration in this area. First, we tested the drugs when administered locally in order to confirm their antagonistic activity over α2-ARs in vivo.
A second step was to study the effect of these compounds increasing NA extracellular concentrations when administered systemically.
In Vivo Microdialysis assays. The experiments were carried out in male Sprague Dawley rats weighing between 250 g and 300 g. At the beginning of the experiments, animals were anaesthetized with chloral hydrate (400 mg/kg i.p.) and a microdialysis probe was implanted by stereotaxic surgery into prefrontal cortex (PFC) brain area. The coordinates selected for the PFC were as follows: AP (anterior to bregma) +2.8 mm, L (lateral from the mid-sagittal suture) +1 mm, DV (ventral from the dura surface) −5 mm.^22 After 24 hours for animal recovery, perfusion fluid (artificial cerebrospinal fluid) is pumped through the probe at a flow rate of 1 μl/min. In the semipermeable membrane, that is the critical side of the probe and is placed on the selected area, molecules flow into and out the cannulae by diffusion. Therefore, microdialysis technique allows local administration of substrates dissolved in the perfusion fluids.
When drugs were locally administered, they were dissolved in a CSF and applied during 70 min via dialysis probe implanted in the PFC in increasing concentrations of 1, 10 and 100 μM. The compounds systemically administered were dissolved in saline and injected intraperitoneally.
Samples, collected with the microdialysis procedure (every 35 min), were analyzed by HPLC with electrochemical detection. NA concentrations were monitorizated by an amperometric detector (Hewlett-Packard model 1049A) at an oxidizing potential of +650 mV. The movil phase (12 mM citric acid, 1 mM EDTA, 0.7 mM octylsodio sulfate, pH 5 and 10% methanol) was filtered, degassed (Hewlett-Packard model 1100 degasser) and delivered at a flow rate of 0.2 ml/min by a Hewlett-Packard model 1100 pump. Stationary phase was a column of 150×2.1 mm (Thermo Electron Corporation, U.S.A.). Samples (injection volume 37 μl) were injected and NA analized in a run time of 10 min. Solution of standard noradrenaline was injected every working day to create a new calibration table.
The mean values of the first three samples before substrate administration were considered as 100% basal value. All measures of extracellular NA concentrations are expressed as percentage of the baseline value±s.e.mean. One way analysis of variance (ANOVA) for control group or two way ANOVA between control and each treated group was assessed for statistical analysis. After the experiments, rats were sacrificed with an overdose of chloral hydrate and the brains were dissected to check the correct implantation of the probe.

mice = test: Tail suspension test; type: in vivo; settings: compared with saline control, FIG. 4
Excerpt: The tail suspension test as illustrated in FIG. 4 has become one of the most widely used models for assessing antidepressant-like activity in mice. The test is based on the fact that animals subjected to the short-term, inescapable stress of being suspended by their tail, will develop an immobile posture. Antidepressant medications encourage the animal to struggle and promote the occurrence of escape-related behaviour.

α2-ARs [5] = biological target: T1, α2-ARs; test: [3H]RX821002 competition binding assay in human brain PFC membranes; settings: human brain PFC tissue, competition with [3H]RX821002 1 nM
Procedure: as §1
[^3H]RX821002 binding assays. […] Incubations were terminated by diluting the samples with 5 ml of ice-cold Tris incubation buffer (4° C.). Membrane bound [^3H]RX821002 was separated by vacuum filtration through Whatman GF/C glass fibre filters. Then, the filters were rinsed twice with 5 ml of incubation buffer and transferred to minivials containing 3 ml of OptiPhase “HiSafe” II cocktail and counted for radioactivity by liquid scintillation spectrometry. Specific binding was determined and plotted as a function of the compound concentration. Non-specific binding was determined in the presence of adrenaline (10^−5 M).
Analysis of binding data. Analysis of competition experiments to obtain the inhibition constant (Ki) were performed by nonlinear regression using the GraphPad Prism program. All experiments were analysed assuming a one-site model of radioligand binding. Ki values were normalized to pKi values.

T1 sequence (P08913 whole entry): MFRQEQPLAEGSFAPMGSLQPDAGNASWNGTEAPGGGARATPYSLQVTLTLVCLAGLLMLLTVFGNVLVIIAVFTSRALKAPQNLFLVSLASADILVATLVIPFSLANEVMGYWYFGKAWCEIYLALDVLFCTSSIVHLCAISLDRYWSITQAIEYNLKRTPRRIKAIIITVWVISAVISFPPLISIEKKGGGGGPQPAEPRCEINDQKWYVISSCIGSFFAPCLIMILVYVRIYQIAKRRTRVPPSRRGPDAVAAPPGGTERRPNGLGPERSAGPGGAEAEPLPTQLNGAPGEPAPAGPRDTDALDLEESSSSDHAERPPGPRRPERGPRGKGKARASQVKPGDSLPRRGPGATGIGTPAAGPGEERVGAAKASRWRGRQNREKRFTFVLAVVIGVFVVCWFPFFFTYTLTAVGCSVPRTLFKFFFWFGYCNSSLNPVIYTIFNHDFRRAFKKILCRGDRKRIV

| ability to cross the blood brain barrier (BBB) ([4]; deduced from NA increase after systemic administration) | affinity for the α2-ARs expressed as pKi (α2-ARs [5]) | SMILES | agonistic or antagonistic properties in [35S]GTPγS experiments (α2-ARs [1]) | stimulation of [35S]GTPγS binding by the compound on its own (α2-ARs [1]) | Emax (α2-ARs [1]; read-out: Emax (%), percentage efficacy relative to UK14304) | affinity towards the α2-ARs compared with references (α2-ARs [2]) | activity at cloned human α2-AR receptor [3] | Emax of increase in extracellular NA levels [4] | α2-AR antagonist properties in vivo ([4]; local and systemic administration, rats) | increase of NA extracellular concentration, maximal effect ([4]; systemic (intraperitoneal) administration, evaluated in PFC) | immobility period (mice) |
| --- | --- | --- | --- | --- | --- | --- | --- | --- | --- | --- | --- |
| – | – | c1cc2c(cc1NC1=NCCN1)CCC2 [Compound 9b, 5-(2-imidazolidinylimino)indan] | agonistic properties | stimulated binding | 98% | within the range of those of Idazoxan and/or Clonidine | agonist | – | – | – | – |
| able to cross the blood brain barrier | – | c1cc(NC2=NCCN2)ccc1CCc1ccc(NC2=NCCN2)cc1 [Compound 20b, 4,4′-di(2-imidazolidinylimino)-1,2-diphenylethane] | antagonistic properties | did not stimulate binding | – | within the range of those of Idazoxan and/or Clonidine | – | 255±76% | α2-AR antagonist properties in vivo | 156±35% | slightly shorter immobility period than the saline control |
| – | 9.04 | COC1(C2=NCCN2)COc2ccccc2O1 (stereo not drawn) [RX821002, 2-methoxy-idazoxan, reference compound] | – | – | – | – | – | 287±49% | – | – | – |
